The record followed here is patent publication US20240368150A1 (Hoffmann-La Roche Inc., priority 2021, published 2024).

Where two headings read alike, the source gives them in different places.

The test system of assay [1] is primary human T-cells.
In assay [2] the test system is primary human T-cells. Kind of assay: Proliferation assay after 5 days (CellTiter-Glo, CD3 stimulation; PBS counter screen). The format is cell-based. The settings on record: CD3 stimulation; for Emax / Emax proliferation (% activation): 5 days, normalized to reference compound A1 as stimulator control = 100%, DMSO neutral control; for Emax: read-out: Emax proliferation (% activation); for EC50: primary human T-cells, CellTiter-Glo after 5 days, EC50 of fitted sigmoidal curve, read-out: Tcell Proliferation CD3 EC50. The method, boiled down:
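ATP-based luminescence (CellTiter-Glo 2.0, room temperature) measured proliferation 5 days after compound addition to CD3-stimulated or unstimulated primary human T-cells. Flags marked compounds that lowered viability or activated unstimulated cells.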

Take `CCc1ncn(-c2cc3c(cc2F)S(=O)(=O)C[C@H](N)C(=O)N3Cc2ccc(Cl)cc2)n1` [Example 525, (3R)-3-amino-5-[(4-chlorophenyl)methyl]-7-(3-ethyl-1,2,4-triazol-1-yl)-8-fluoro-1,1-dioxo-2,3-dihydro-1λ^6,5-benzothiazepin-4-one]: the EC50 turned out to be 3.51 µM in assay [1] and 0.935 µM in assay [2] (Homo sapiens, T-cell, 120 h). In addition, the Emax in assay [2] (Homo sapiens, T-cell, 120 h) came to 67%.
Take `CN1CC(c2nc(-c3cc4c(cc3F)[S+]([O-])C[C@H](N)C(=O)N4Cc3ccc(Cl)cc3)no2)CC(F)(F)C1` (single isomer, unassigned; epimer a) [Example 342]: the EC50 in assay [1] is greater than 10 µM; in assay [2] it was 4.85 µM. The “Emax proliferation (% activation)” value in assay [2] is recorded as 80 % activation.
Consider `COC(=O)N1CC2CC(c3nnc(-c4ccc5c(c4)N(Cc4ccc(OC(F)(F)C(F)F)cc4)C(=O)[C@@H](N)CS5(=O)=O)o3)(C2)C1` [Example 443, Methyl 1-[5-[(3R)-3-amino-1,1,4-trioxo-5-[[4-(1,1,2,2-tetrafluoroethoxy)phenyl]methyl]-2,3-dihydro-1λ^6,5-benzothiazepin-7-yl]-1,3,4-oxadiazol-2-yl]-3-azabicyclo[3.1.1]heptane-3-carboxylate], for which the EC50 in assay [1] is greater than 10 µM; in assay [2] (Homo sapiens, T-cell, 120 h), 3.85 µM. Besides, in assay [2] (Homo sapiens, T-cell, 120 h), the Emax was determined as 97%.
Turning to `CC1CN(Cc2nnc(-c3cc4c(cc3F)SC[C@H](N)C(=O)N4Cc3ccc(Cl)cc3)o2)C1` [Example 507, (3R)-3-amino-5-[(4-chlorophenyl)methyl]-8-fluoro-7-[5-[(3-methylazetidin-1-yl)methyl]-1,3,4-oxadiazol-2-yl]-2,3-dihydro-1,5-benzothiazepin-4-one], the EC50 in assay [1] turned out to be 8.04 µM; in assay [2] (Homo sapiens, T-cell, 120 h), 2.23 µM. Further, the Emax in assay [2] (Homo sapiens, T-cell, 120 h) came to 74%.
In assay [1], `CC(C)(C)c1nnc(-c2cc3c(cc2F)S(=O)(=O)C[C@H](N)C(=O)N3Cc2ccc(OC(F)F)cc2)o1` [Example 223, (3R)-3-amino-7-(5-tert-butyl-1,3,4-oxadiazol-2-yl)-5-[[4-(difluoromethoxy)phenyl]methyl]-8-fluoro-1,1-dioxo-2,3-dihydro-1λ^6,5-benzothiazepin-4-one] displayed an EC50 greater than 20 µM. In assay [2] (Homo sapiens, T-cell, 120 h), the Emax was determined as 128% and the EC50 is less than 0.162 µM.
On the same counts, the results for `N[C@H]1CS(=O)(=O)c2cc(F)c(-c3nnc(C4CNCC(F)(F)C4)o3)cc2N(Cc2ccc(Cl)cc2)C1=O` (stereo partly drawn) [Example 160, (3R)-3-amino-5-[(4-chlorophenyl)methyl]-7-[5-(5,5-difluoro-3-piperidyl)-1,3,4-oxadiazol-2-yl]-8-fluoro-1,1-dioxo-2,3-dihydro-1λ^6,5-benzothiazepin-4-one] are 0.499 µM, 96% and 0.382 µM.
`N[C@H]1CS(=O)(=O)c2cc(F)c(-c3nnc(C4CNCCC4(F)F)o3)cc2N(Cc2ccc(Cl)cc2)C1=O` (stereo partly drawn) [Example 105, (3R)-3-amino-5-[(4-chlorophenyl)methyl]-7-[5-(4,4-difluoro-3-piperidyl)-1,3,4-oxadiazol-2-yl]-8-fluoro-1,1-dioxo-2,3-dihydro-1λ^6,5-benzothiazepin-4-one] showed an EC50 in assay [1] of 1.17 µM. For the same compound, in assay [2] (Homo sapiens, T-cell, 120 h), the Emax is 31% and the EC50 turned out to be 4.16 µM.
As for `N[C@H]1CS(=O)(=O)c2cc(F)c(-c3nnc(N4CCC5(CC4)COC5)o3)cc2N(Cc2ccc(Cl)cc2)C1=O` [Example 478, (3R)-3-amino-5-[(4-chlorophenyl)methyl]-8-fluoro-7-[5-(2-oxa-7-azaspiro[3.5]nonan-7-yl)-1,3,4-oxadiazol-2-yl]-1,1-dioxo-2,3-dihydro-1λ^6,5-benzothiazepin-4-one], the EC50 is 0.832 µM in assay [1] and 1.32 µM in assay [2] (Homo sapiens, T-cell, 120 h). In addition, the Emax in assay [2] (Homo sapiens, T-cell, 120 h) turned out to be 87%.
For the compound `CN(C)CCC(C)(C)c1nnc(-c2cc3c(cc2F)S(=O)(=O)C[C@H](N)C(=O)N3Cc2ccc(Cl)cc2)o1` [Example 140, (3R)-3-amino-5-[(4-chlorophenyl)methyl]-7-[5-[3-(dimethylamino)-1,1-dimethyl-propyl]-1,3,4-oxadiazol-2-yl]-8-fluoro-1,1-dioxo-2,3-dihydro-1λ^6,5-benzothiazepin-4-one], the EC50 in assay [1] was found to be 3.88 µM. In assay [2] (Homo sapiens, T-cell, 120 h), the Emax amounted to 70% and the EC50 was 5.35 µM.
Turning to `N[C@H]1CS(=O)(=O)c2cc(F)c(-c3nnc(N4C[C@H]5C[C@@H](C4)C5(F)F)o3)cc2N(Cc2ccc(Cl)cc2)C1=O` [Example 469, (3R)-3-amino-5-[(4-chlorophenyl)methyl]-8-fluoro-1,1-dioxo-7-[5-[(1R,5S)-6,6-difluoro-3-azabicyclo[3.1.1]heptan-3-yl]-1,3,4-oxadiazol-2-yl]-2,3-dihydro-1λ^6,5-benzothiazepin-4-one], the EC50 in assay [1] was found to be 2.55 µM. In addition, in assay [2] (Homo sapiens, T-cell, 120 h), the Emax is 105% and the EC50 came to 0.17 µM.
Consider `CS(=O)(=O)N1CCC(n2nnc(-c3cc4c(cc3F)S(=O)(=O)C[C@H](N)C(=O)N4Cc3ccc(Cl)cc3)n2)CC1` [Example 17, (3R)-3-amino-5-[(4-chlorophenyl)methyl]-8-fluoro-7-[2-(1-methylsulfonyl-4-piperidyl)tetrazol-5-yl]-1,1-dioxo-2,3-dihydro-1λ^6,5-benzothiazepin-4-one], for which the EC50 in assay [1] stood at 0.262 µM. In assay [2] (Homo sapiens, T-cell, 120 h), the Emax amounted to 239% and the EC50 is 0.167 µM.
As for `CN(C)CCCC(C)(C)c1nnc(-c2cc3c(cc2F)S(=O)(=O)C[C@H](N)C(=O)N3Cc2ccc(Cl)cc2)o1` [Example 143, (3R)-3-amino-5-[(4-chlorophenyl)methyl]-7-[5-[4-(dimethylamino)-1,1-dimethyl-butyl]-1,3,4-oxadiazol-2-yl]-8-fluoro-1,1-dioxo-2,3-dihydro-1λ^6,5-benzothiazepin-4-one], the EC50 in assay [1] is 1.27 µM; in assay [2] (Homo sapiens, T-cell, 120 h) it was 2.39 µM. Further, the Emax in assay [2] (Homo sapiens, T-cell, 120 h) worked out at 77%.
For the compound `N[C@H]1CS(=O)(=O)c2cc(F)c(-c3nnc(NC45CC(Cl)(C4)C5)o3)cc2N(Cc2ccc(Cl)cc2)C1=O` [Example 500, (3R)-3-amino-7-[5-[(3-chloro-1-bicyclo[1.1.1]pentanyl)amino]-1,3,4-oxadiazol-2-yl]-5-[(4-chlorophenyl)methyl]-8-fluoro-1,1-dioxo-2,3-dihydro-1λ^6.5-benzothiazepin-4-one], the EC50 in assay [1] was found to be 0.911 µM; in assay [2] (Homo sapiens, T-cell, 120 h), 1.23 µM. Also, the Emax in assay [2] (Homo sapiens, T-cell, 120 h) was found to be 97%.
In assay [1], `N[C@H]1CS(=O)(=O)c2ccc(-c3nnc(N4CCOC5(CC5)C4)o3)cc2N(Cc2ccc(Cl)cc2)C1=O` [Example 411, (3R)-3-amino-5-[(4-chlorophenyl)methyl]-7-[5-(4-oxa-7-azaspiro[2.5]octan-7-yl)-1,3,4-oxadiazol-2-yl]-1,1-dioxo-2,3-dihydro-1λ^6,5-benzothiazepin-4-one] yielded an EC50 greater than 10 µM. Besides, in assay [2] (Homo sapiens, T-cell, 120 h), the Emax amounted to 78% and the EC50 is 0.454 µM.
With `N[C@H]1CS(=O)(=O)c2cc(F)c(-c3nnc(-c4ccc(F)cc4)o3)cc2N(Cc2ccc(Cl)cc2)C1=O` [Example 99, (3R)-3-amino-5-[(4-chlorophenyl)methyl]-8-fluoro-7-[5-(4-fluorophenyl)-1,3,4-oxadiazol-2-yl]-1,1-dioxo-2,3-dihydro-1λ^6,5-benzothiazepin-4-one], the EC50 in assay [1] was found to be 0.105 µM. For the same compound, in assay [2] (Homo sapiens, T-cell, 120 h), the Emax worked out at 112% and the EC50 turned out to be 0.0822 µM.
“(3R)-3-amino-5-[(4-chlorophenyl)methyl]-7-[5-(2,2-difluoromorpholin-4-yl)-1,3,4-oxadiazol-2-yl]-1,1-dioxo-2,3-dihydro-1λ^6,5-benzothiazepin-4-one [Example 413]” gave an EC50 in assay [1] of 1.08 µM. Also, in assay [2], the “Emax proliferation (% activation)” value was determined as 160 % activation and the EC50 is 0.193 µM.
On to `CC(C)(C)c1cn(-c2cc3c(cc2F)S(=O)(=O)C[C@H](N)C(=O)N3Cc2ccc(Cl)cc2)nn1` [Example 5, (3R)-3-amino-7-(4-tert-butyltriazol-1-yl)-5-[(4-chlorophenyl)methyl]-8-fluoro-1,1-dioxo-2,3-dihydro-1λ^6,5-benzothiazepin-4-one], for which the EC50 in assay [1] stood at 0.991 µM. In assay [2] (Homo sapiens, T-cell, 120 h), the Emax was 154% and the EC50 was found to be 2.14 µM.
In assay [1], `N[C@H]1CS(=O)(=O)c2ccc(-c3nnc(N4CCOCC4)o3)cc2N(Cc2ccc(Cl)cc2)C1=O` [Example 410, (3R)-3-amino-5-[(4-chlorophenyl)methyl]-7-(5-morpholino-1,3,4-oxadiazol-2-yl)-1,1-dioxo-2,3-dihydro-1λ^6,5-benzothiazepin-4-one] registered an EC50 of 7.13 µM. Moreover, in assay [2] (Homo sapiens, T-cell, 120 h), the Emax worked out at 109% and the EC50 came to 1.16 µM.
In assay [1], `CC(C)(C)c1nnc(-c2ccc3c(c2)N(Cc2ccc(OC4CCCCC4)cc2)C(=O)[C@@H](N)CS3(=O)=O)o1` [Example 434, (3R)-3-amino-7-(5-tert-butyl-1,3,4-oxadiazol-2-yl)-5-[[4-(cyclohexoxy)phenyl]methyl]-1,1-dioxo-2,3-dihydro-1λ^6,5-benzothiazepin-4-one] showed an EC50 of 6.16 µM. Further, in assay [2] (Homo sapiens, T-cell, 120 h), the Emax stood at 130%.
Consider `CN1CC(n2nnc(-c3cc4c(cc3F)S(=O)(=O)C[C@H](N)C(=O)N4Cc3ccccc3)n2)CC(F)(F)C1` (stereo partly drawn) [Example 22, (3R)-3-amino-5-benzyl-7-[2-(5,5-difluoro-1-methyl-3-piperidyl)tetrazol-5-yl]-8-fluoro-1,1-dioxo-2,3-dihydro-1λ^6,5-benzothiazepin-4-one], for which the EC50 is greater than 10 µM in assay [1] and greater than 10 µM in assay [2] (Homo sapiens, T-cell, 120 h). The Emax in assay [2] (Homo sapiens, T-cell, 120 h) was 74%.
